The text below walks through data of publication PMC5958064, “Single cell analysis of kynurenine and System L amino acid transport in T cells” (Nature Communications, 2018).

One series addresses T1, System L transporter (Mus musculus, UniProt Q9Z127).
T1 construct: Radiolabelled tracer uptake in IL-2 maintained TH1 cells (top panels) and IL-2 maintained CTLs (bottom panels); endogenous in cells; host or cells: IL-2 maintained mouse TH1 cells and CTLs
Briefly: Radiolabelled 3H-tryptophan uptake in TH1 cells and CTLs. The format is cell-based. The following applies: BCH 5 mM. Here is the method: (§1) Briefly, radiolabelled uptake was carried out using 1 × 10^6 cells resuspended in 0.4 ml uptake medium. Kynurenine uptake was carried out in warmed (37 °C) HBSS (GIBCO) containing [^3H] L-kynurenine (0.1 μCi/ml). 4 min uptake assays were carried out layered over 0.5 ml of 1:1 silicone oil (Dow Corning 550 (BDH silicone products; specific density, 1.07 g/ml):dibutyl phthalate (Fluka)). Cells were pelleted below the oil, the aqueous supernatant solution, followed by the silicon oil/dibutyl phthalate mixture was aspirated, and the cell pellet underneath resuspended in 200 μl NaOH (0.5 M) and β-radioactivity measured by liquid scintillation counting in a Beckman LS 6500 Multi-Purpose Scintillation Counter (Beckman Coulter). Similarly, glutamine uptake was performed using [^3H] L-glutamine (0.5 μCi/ml); tryptophan uptake was performed using [^3H] L-tryptophan (0.5 μCi/ml). Where indicated, 5 mM BCH, Kynurenine, L-glutamine or L-tryptophan were used, respectively, to quench radiolabeled ligand uptake. Where indicated, the sodium free buffer was prepared using TMACl as described in Baird et al.[35] Data are expressed as molecules radiotracer per cell per minute. [^3H] L-kynurenine, [^3H] L-tryptophan and [^3H] L-glutamine were obtained from Perkin Elmer. All other chemicals were obtained from Sigma.

The next series relates to activated T cells. Nature of the series: Radiolabelled 3H-glutamine uptake in activated T cells. The series is classed as cell-based, mouse. The following applies: IL-2 maintained TH1 cells and CTLs, BCH 5 mM. The procedure:
as §1

For series [1], the target named is T2, System L transporter SLC7A5 (Mus musculus, UniProt Q9Z127).
T2 construct: endogenous in cells
Briefly: Flow cytometry kynurenine uptake assay (450 nm fluorescence) in T cells. The format is cell-based. The settings on record: D3 TH17cond CD4+ T cells, kynurenine 100 μM, 4 min, BCH 10 mM. Background: A flow cytometer gives signals particle by particle.

Series [2] has as its system Cyp1a1 (mRNA, through AHR). Briefly: Cyp1a1 mRNA induction in TH17cond CD4+ T cells (qPCR). The format is cell-based, mouse. The settings on record: mouse, day 3 TH17-conditioned primary CD4+ T cells, D3 TH17cond CD4+ T cells, 2 h; read-out: EC50 to drive Cyp1A1 mRNA expression. The procedure: To activate primary T cells, spleens and/or lymph nodes (LN) were removed, disaggregated and red blood cells lysed. Cells were stimulated with 1 μg/ml of the CD3 monoclonal antibody (2C11) and 2 μg/ml anti-CD28 (37.51; ebiosciences) to trigger the TCR. Naive CD4^+ T cells and 24 h TCR-activated CD4^+ T cells were purified using CD4 isolation kit (EasySep, STEMCELL Technologies). […] Proleukin, Novartis) for a further 3–5 days. To generate TH1s and TH17s, murine CD8^+ T cells were depleted from lymph node preparations using CD8 depletion kit (EasySep, STEMCELL Technologies). […] RnD Systems) and IL-2 (20 ng/ml) and for TH17s; cytokines IL-6 (50 ng/ml, Peprotech), IL-1β (10 ng/ml, Peprotech) and TGFβ (2 ng/ml, Peprotech). TH17s were cultured in IMDM (Gibco). All other cells were cultured in RPMI 1640 containing L-glutamine (Gibco). Culture media was supplemented with 10% FBS (Gibco), 50 μM β-mercaptoethanol (β-ME, Sigma) and penicillin/streptomycin (Gibco). Cells were incubated at 37 °C with 5% CO2 throughout. […] RNA was purified using the RNeasy RNA purification Mini Kit (Qiagen) (Genomic DNA was digested with RNase-free DNase (Qiagen) following manufacturer instructions) and reverse-transcribed using the iScript cDNA synthesis kit (BioRad). Quantitative PCR was performed in 96-well plate format using iQ SYBR Green-based detection (BioRad) on a BioRad iCycler.
In general terms: In qPCR the cycle at which signal appears reflects the starting amount.

For a further series, the system named is mTORC1. Briefly: mTORC1 activity in CTLs after leucine removal and refeeding. The format is cell-based, mouse. The following applies: CTLs removed from leucine, refed leucine 100uM ± Kyn 100uM. The text has this:
page 13: • We […] would not be able to measure the levels of in vivo ky nurenine uptake with this assay (for the reasons explained above). However, this is a pertinent question, and will relate to the total amount of available kynurenine compared to alternative System L substrates. The detailed micro-environmental metabolomics techniques required to perform this kind of analysis is beyond the scope of this paper, however we have tried to address this point in the discussion. Second, did CD4 T cells (Foxp3-) and Tregs (Foxp3+) from Lm-infected mice also i mport Ky n? […] This, also, is a very interesting aspect, however we feel that it is beyond the scope of this paper. Point 4: Data presented in Figures 4 & 5 show convincingly that SLC7A5 ablation in CD4 T cells abolishes Kyn uptake in CD4 T cells selectively and that imported Kyn triggers AhR signaling in CD4 T cells, respectively. However, no data is presented to address the biological significance of these findings, specifically regarding the reported ability of Kyn to suppress Th1 responses (e.g. IFNg production) or to reinforce Treg-mediated suppression of effector T cells via AhR signaling. […]

Series [3] concerns Cyp1A1 expression in U87 glioma cells. Further details: method as in PMID 21976023. The following applies: read-out: EC50 to drive Cyp1A1 expression; cited from earlier work.
The subject of another series is AHR. Further details: method as in PMID 25657351, PMID 29279331. The settings on record: cited from earlier work.

As a reminder, the EC50 is the concentration at which the effect is half-maximal.

T2 sequence (Q9Z127 whole entry): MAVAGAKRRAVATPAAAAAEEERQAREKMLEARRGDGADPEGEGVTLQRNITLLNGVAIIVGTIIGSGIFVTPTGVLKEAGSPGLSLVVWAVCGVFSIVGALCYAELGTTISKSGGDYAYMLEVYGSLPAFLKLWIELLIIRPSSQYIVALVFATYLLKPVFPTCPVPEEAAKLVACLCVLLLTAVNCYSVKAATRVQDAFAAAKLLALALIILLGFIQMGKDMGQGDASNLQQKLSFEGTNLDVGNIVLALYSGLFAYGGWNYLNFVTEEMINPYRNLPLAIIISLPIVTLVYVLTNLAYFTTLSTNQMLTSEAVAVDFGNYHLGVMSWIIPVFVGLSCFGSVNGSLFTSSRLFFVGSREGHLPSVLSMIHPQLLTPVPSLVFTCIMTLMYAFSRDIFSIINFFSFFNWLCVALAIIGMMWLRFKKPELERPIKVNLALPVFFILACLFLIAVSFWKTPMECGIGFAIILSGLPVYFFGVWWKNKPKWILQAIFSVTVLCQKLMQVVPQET
T2 sequence (P10852 whole entry partner): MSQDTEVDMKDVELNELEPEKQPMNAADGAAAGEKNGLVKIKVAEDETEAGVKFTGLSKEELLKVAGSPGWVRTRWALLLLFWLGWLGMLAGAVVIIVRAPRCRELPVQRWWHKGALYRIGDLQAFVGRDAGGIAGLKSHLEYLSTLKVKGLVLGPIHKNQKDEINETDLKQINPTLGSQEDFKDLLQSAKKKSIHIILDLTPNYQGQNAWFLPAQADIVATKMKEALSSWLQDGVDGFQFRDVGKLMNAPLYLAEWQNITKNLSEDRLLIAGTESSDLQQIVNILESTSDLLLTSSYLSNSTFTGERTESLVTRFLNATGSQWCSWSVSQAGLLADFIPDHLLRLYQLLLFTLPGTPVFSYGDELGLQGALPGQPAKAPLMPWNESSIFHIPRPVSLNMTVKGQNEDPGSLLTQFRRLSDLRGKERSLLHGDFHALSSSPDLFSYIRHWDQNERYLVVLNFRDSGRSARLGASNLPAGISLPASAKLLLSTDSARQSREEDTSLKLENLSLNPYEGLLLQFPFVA
T1 sequence (Q9Z127 whole entry): as the sequence (Q9Z127 whole entry) above
T1 sequence (P10852 whole entry partner): as the sequence (P10852 whole entry partner) above

In the case of `NC1(C(=O)O)CC2CCC1C2` (stereo not shown) [BCH, 2-amino-2-norbornanecarboxylic acid], the “effect on 3H-tryptophan transport” value on System L transporter is “inhibited”. Besides, in the series with activated T cells, the “effect on radiolabelled glutamine uptake” value is on record as “failure to block”. In series [1], the “effect on kynurenine uptake” value is listed as “inhibited”.
As for `Nc1ccccc1C(=O)CC(N)C(=O)O` (stereo not shown) [kynurenine], in series [2], the EC50 at 2 h was 11 µM. In addition, the “effect on mTORC1 activity” value in the series with mTORC1 is “impair restoration of mTORC1 activity”. For the same compound, in series [3], the concentration giving a half-maximal response (EC50) was 12.3 µM. Further, the “concentrations needed to activate the AHR” value with AHR was “μM levels”.
